Reference: patent US20220023289A1, “Application Of Pyrroloquinoline Quinone In Preparation Of Medicament Used For Preventing And Treating Acute Altitude Sickness And Acute Altitude Hypoxia Injury” (priority 2018, published 2022)

Columns and labels:
[1] = test system: rats exposed to acute altitude hypoxia; assay: Serum homocysteine in rats exposed to acute altitude hypoxia; format: in vivo, Wistar rat; details: for Serum homocysteine: 0.11 g/kg
Experimental: (§2) Select healthy Wistar rats weight 160-200 g, half female and half male. After feeding for 3 days, these Wistar rats are randomly divided into ten groups according to their body weight, each group has 16±2 rats. The groups are divided as follows: five groups of the hypoxic exposure drug test group, respectively, are given 0.91 mg/kg, 1.83 mg/kg, 3.66 mg/kg, 7.31 mg/kg, and 14.63 mg/kg drugs. […] After continuous intragastric administration for 7 days, the animals in the hypoxic exposure group are simultaneously put into the decompression and hypoxia compound experimental chamber, the hatch is closed, and the pressure is reduced at a speed of 10 m/s. After being raised to an altitude of 6000 m and maintained for 8 hours, the speed in 10 m/s drops is reduced to normal altitude, open the hatch, and then take out the animal, collect blood samples (after standing for 1 hour, the supernatant is centrifuged and stored at −20° C.), and liver tissue samples. Detection indicator includes body weight, serum blood glucose, ATP, lactic acid, endothelin, nitric oxide, SOD, CO, MDA related to oxidative stress, and total protein, albumin, triglycerides, total cholesterol, high-density lipoprotein cholesterol, low-density lipoprotein cholesterol, glutamic pyruvic transaminase, total bilirubin, gluamic oxalacetic transaminase, serum urea nitrogen, creatinine, uric acid, lactate dehydrogenase, creatine kinase, α-hydroxybutyrate dehydrogenase; liver ATP, hepatic glycogen. Except that the formal oxygen control animal group is not put into the decompression and hypoxia compound experimental chamber, other experimental conditions and detection indicators are the same.
Measure blood glucose, total protein, albumin, triglycerides, total cholesterol, high-density lipoprotein cholesterol, low-density lipoprotein cholesterol, glutamic-pyruvic transaminase, total bilirubin, glutamic oxalacetic transaminase, serum urea nitrogen, creatinine, uric acid, lactate dehydrogenase, creatine kinase, α-hydroxybutyrate dehydrogenase, blood homocysteine by using an automatic blood biochemical analyzer.

[2] = test system: rats with acute altitude hypoxia injury; assay: Oxidative stress indexes of rats with acute altitude hypoxia injury; format: in vivo, Wistar rat
Source text: Operate according to the instructions, and then measure the absorbance value of each tube, and afterwards calculate the content of malondialdehyde in the sample to be tested according to the formula. […] The latter oxidizes hydroxylamine to form nitrite. It appears purplish red under the action of chromogenic agent. Measure its absorbance by a visible light spectrophotometer. When the measured sample contains superoxide dismutase, it has specific inhibitory effect on superoxide anion free radicals, make formed nitrite reduced. […] The superoxide dismutase activity in the tested sample can be calculated by formula calculation. […] The latter can form a stable complex with phenanthrophins and measure its antioxidant capacity by colorimetry. Operate according to the kit instructions, measure the absorbance of each tube at a wavelength of 520 nm, and then calculate the total antioxidant capacity in the sample to be tested according to the formula.

[3] = test system: rats with acute altitude hypoxia injury; assay: Serum energy metabolism indexes (ATP, lactic acid) in rats with acute altitude hypoxia injury; format: in vivo, Wistar rat; details: for serum Lactic acid: 0.11 g/kg
Experimental: (§1) Determination of adenosine triphosphate (ATP): Perform enzyme-linked immunosorbent assay by double-antibody one-step sandwich method. To the coated microwells pre-coated with rat adenosine triphosphate (ATP) capture antibody, add in sequence the specimens, standard, and HRP-labeled detection antibody, and then incubate and wash thoroughly. Use a substrate TMB for color development, TMB is converted into blue under the catalysis of peroxidase and converted into the final yellow color under the action of acid. The color intensity is positively correlated with the rat adenosine triphosphate (ATP) in the sample. […] Determination of lactic acid (LC): Perform enzyme-linked immunosorbent assay by double-antibody one-step sandwich method. To the coated microwells pre-coated with rat lactic acid (LC) capture antibody, add in sequence the specimens, standard, and HRP-labeled detection antibody, and then incubate and wash thoroughly. Use a substrate TMB for color development. TMB is converted into blue under the catalysis of peroxidase and converted into the final yellow color under the action of acid. The color intensity is positively correlated with the rat lactic acid (LC) in the sample.

[4] = test system: rats exposed to acute altitude hypoxia; assay: Liver ATP and glycogen in rats exposed to acute altitude hypoxia; format: in vivo, Wistar rat
Experimental: as §1, with “liver glycogen (GC):” for “lactic acid (LC):”, “liver glycogen (GC)” for “lactic acid (LC)”, “development,” for “development.”

[5] = test system: mice exposed to high altitude hypoxia; assay: Exhaustive swimming experiment in mice exposed to high altitude hypoxia (6000 m); format: in vivo, Kunming mice
Source text: Select healthy male Kunming mice weight 18-22 g.

[6] = Rat body weight before the acute decompression hypoxia experiment (intragastric 7 days)
Experimental: as §2

[7] = female rats, hypoxia, 0.11 g/kg
[8] = female rats, normoxia, 0.11 g/kg

In the case of CC(=O)Nc1nnc(S(N)(=O)=O)s1 [Acetazolamide, reference compound], the Serum homocysteine ([1]; female rats, hypoxia) is reported as 9.54 ± 0.98 µmol/L, the “effect on serum homocysteine” value ([1]; female rats, normoxia) is reported as “no significant effects” and the Serum homocysteine ([1]; female rats, normoxia) is reported as 9.33 ± 1.16 µmol/L. For the same compound, the “effect on serum homocysteine” value ([1]; hypoxia exposed female rats) was “no significant effects”, the “effect on serum homocysteine” value ([1]; hypoxia exposed male rats) was “have been not found” and the Serum homocysteine ([1]; male rats, hypoxia) was 11.13 ± 1.67 µmol/L. The “Endo Dialdehyde” value [2, 7] was 13.09 ± 2.13 nmol/L, the Superoxide dismutase [2, 7] was 57.11 ± 3.40 U/ml and the Total antioxidants [2, 7] was 10.36 ± 0.81 U/ml. For the same compound, the “Endo Dialdehyde” value [2, 8] was 14.12 ± 0.32 nmol/L, the Superoxide dismutase [2, 8] was 50.88 ± 3.34 U/ml and the Total antioxidants [2, 8] was 10.31 ± 0.20 U/ml. For the same compound, the “effect on serum superoxide dismutase activity” value ([2]; hypoxia exposed female rats) was “increasing”, the “effect on serum total antioxidants and malondialdehyde” value ([2]; hypoxia exposed female rats) was “no significant effects” and the “effect on serum superoxide dismutase activity” value ([2]; hypoxia exposed male rats) was “increasing”. The “effect on serum total antioxidants and malondialdehyde” value ([2]; male rats) was “no significant effects”, the Malonaldehyde ([2]; male rats, hypoxia, 0.11 g/kg) was 3.24 ± 1.52 nmol/L and the Superoxide dismutase ([2]; male rats, hypoxia, 0.11 g/kg) was 182.51 ± 4.46 U/ml. The “serum Lactic acid” value ([3]; female rats, hypoxia) was 132.16 ± 10.42 ng/L, the “effect on serum ATP and lactic acid content” value ([3]; female rats, last sentence of b195 (normoxia per Table 37)) was “reducing” and the “serum Lactic acid” value ([3]; female rats, normoxia) was 100.54 ± 7.13 ng/L. For the same compound, the “effect on serum ATP and lactic acid content” value ([3]; hypoxia exposed female rats) was “no significant effects”, the “effect on serum ATP” value ([3]; male rats) was “no significant effects” and the “effect on serum lactic acid content” value ([3]; male rats) was “reducing”. For the same compound, the “serum Lactic acid” value ([3]; male rats, hypoxia) was 161.46 ± 6.94 ng/L, the “effect on liver ATP and glycogen content” value ([4]; female rats, after hypoxia exposure and normoxia) was “no significant effects” and the “liver Glycogen” value [4, 7] was 3.71 ± 0.27 ng/mL. The liver ATP [4, 8] was 1.39 ± 0.54 µg/mL, the “liver Glycogen” value [4, 8] was 2.75 ± 1.13 ng/mL and the “effect on liver ATP and glycogen content” value ([4]; male rats) was “no significant effects”. For the same compound, the “liver Glycogen” value ([4]; male rats, hypoxia, 0.11 g/kg) was 2.14 ± 0.21 ng/mL, the “start time of exhaustion swimming death” value ([5]; male mice, 6000 m) was “died earlier” and the “Exhausted swimming survival time” value ([5]; male mice, 6000 m, 7 days, acetazolamide positive drug control (0.16 g/kg)) was 130.64 ± 79.46 min. The “increasing rate of survival time” value ([5]; male mice, 6000 m, acetazolamide positive drug control (0.16 g/kg)) was 2.10%, the “effect on survival time after exhausting swimming / working ability under hypoxia” value ([5]; mice under low oxygen exposure) was “no effect” and the “rat body weight Female 1 day” value ([6]; 0.11 g/kg) was 153.4 ± 6.1 g. The “rat body weight Female 7 days” value ([6]; 0.11 g/kg) was 163.3 ± 6.76 g, the “rat body weight Male 1 day” value ([6]; 0.11 g/kg) was 172.4 ± 6.8 g and the “rat body weight Male 7 days” value ([6]; 0.11 g/kg) was 189.1 ± 11.8 g. For the same compound, the “effect on body weight” value ([6]; female rats, 7 days) was “no significant effects” and the effect on weight ([6]; male rats, 7 days) was “decreased”.
